Data published in EP2468280A1, “Use of prokineticin 1 receptor agonists to promote the differentiation of epicardin+ progenitor cells” (Université de Strasbourg, priority 2010, dated 2012).

Experiments:
PKR1 = experiment: Measurement of intracellular calcium in CHO-K1-PKR1 cells (Fluo 4-AM, confocal microscope); format: cell-based; details: CHO-K1 cells infected with adenovirus carrying PKR1 cDNA, 48h after infection, 37°C
Protocol: CHO-K1 (Chinese Hamster Ovary) cells were infected with an adenovirus carrying PKR1 cDNA. Cells were then stimulated, 48h after infection, with or without IS1 agonists, at 37°C.
Calcium imaging was conducted essentially as previously described (Horinouchi et al., 2007) In brief, Intracellular free calcium [Ca^2+]i was measured with the fluorescent Ca^2+ indicator dye Fluo 4-AM, the membrane-permeant acetoxymethyl ester form of Fluo 4 (Invitrogen). Changes in [Ca^2+]i were determined from variations in the fluorescence intensity of Fluo 4-AM. Briefly, trypsinized CHO-K1-PKR1 cells were seeded onto glass bottom culture dishes (MatTek, MA, USA) for 24 h. […] The fluorescence in the cells was excited at a wavelength of 488 nm and a series of images (total exposure time: 300 s) were acquired at 0.5s intervals at emission wavelength 518 nm. Data are presented as the fluorescence intensity of 3 randomly chosen cells within a randomly selected 40× field. To evaluate the effect of IS1 compound on [Ca^2+]i in CHO-K-PKR1, the maximum change in fluorescence intensity upon addition of IS1 was measured and normalized to the baseline fluorescence obtained before IS 1 addition.

GFP-PKR1 = target: T1, GFP-PKR1 (Homo sapiens, UniProt Q8TCW9); experiment: PKR1 internalization in CHO-K1 cells transfected with GFP-PKR1; format: cell-based; details: CHO-K1 cells expressing GFP-PKR1, 48h after transfection, 37°C, 20 min imaging
T1 construct: expressed in transfected cells; host or cells: CHO-K1 cells, transient transfection with Lipofectamine2000
T1 sequence (Q8TCW9 whole entry): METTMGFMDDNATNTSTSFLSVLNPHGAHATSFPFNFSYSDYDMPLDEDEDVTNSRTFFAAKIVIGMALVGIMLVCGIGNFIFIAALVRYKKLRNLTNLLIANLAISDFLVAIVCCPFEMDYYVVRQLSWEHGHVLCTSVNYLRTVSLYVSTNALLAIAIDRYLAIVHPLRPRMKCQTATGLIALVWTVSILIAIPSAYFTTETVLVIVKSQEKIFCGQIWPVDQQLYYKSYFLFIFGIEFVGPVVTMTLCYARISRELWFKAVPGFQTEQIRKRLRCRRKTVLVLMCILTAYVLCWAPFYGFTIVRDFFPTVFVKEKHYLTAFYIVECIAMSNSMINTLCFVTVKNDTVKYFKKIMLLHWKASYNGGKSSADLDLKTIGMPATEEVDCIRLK
Protocol: The capacity of agonist compounds to induce internalization of PKR1 was assessed. Therefore, CHO-K1 cells transfected with a plasmid encoding GFP-PKR1 (Green Fluorescent Protein-PKR1), in the presence of Lipofectamine2000 (Invitrogen), were used. Cells were stimulated, 48h after transfection, with or without agonist compound, at 37°C. GFP is a fluorescent protein fusion (26.9 kDa) which has a major excitation peak at a wavelength of 396 nm and a minor one at 472 nm. Its emission peak is at 504 nm which is in the lower green portion of the visible spectrum. Fluorescence allowed tracking the localization of PKR1 after stimulation by the agonist (membrane or subcellular). Cells were seeded in glass-bottom coated with polyL-lysine and receptor studies were performed in the presence of various PKR1-ligands. Samples were observed under a Leica confocal microscope (SP2 AOBS MP) with objective 63× at 37°C. Images were automatically recorded during 20 min, with increasing time intervals to avoid bleaching effects because of repetitive scanning. Reconstituted videos contained 42 images and lasted 2 second.

[1] = system: Coronary endothelial cells (H5V cells); experiment: In vitro angiogenesis, tube-like formation on Matrigel; format: cell-based; details: serum free medium, 24h
Protocol: Coronary endothelial cells (H5V cells) were maintained in DMEM supplemented with 10% heat inactivated Fetal Calf Serum (FCS), glutamine (1mM) under 5% CO2 at 37°C.
In order to evaluate the potential angiogenic activity of the non peptide PKR1 agonists, the test of Growth Factor Reduced Matrigel (GFR Matrigel) 24 well plate was performed. Matrigel leads to the differentiation of many cell types and induces the formation and organization of endothelial cells into capillary tubules. Twenty-four-well culture plates were coated with Matrigel and endothelial cells (H5V) were trypsin-harvested and seeded onto the coated plates at 10^5 cells per well in the serum free assay medium with PKR1 agonists, IS1 and prokineticin-2, and incubated at 37°C for 24h. Tube formation as two dimensional branched structures were observed using an inverted phase contrast microscope (Zeiss), and the number of branching points were quantified in per well from each sample. Each experiment was repeated at least three times. Images were captured at a magnification of X10 with a digital microscope camera system (Urayama K et al., 2007).

cEPPC = experiment: Cardiomyocyte differentiation of cEPPC (contractility by time lapse microscopy, troponin immunostaining); format: cell-based, C57BL/B6 mice; details: beta adrenergic stimuli, isoproterenol 25 nM
Protocol: Hearts were removed from P1 neonate C57BL/B6 mice or PKR1 null mutant mice, cut into pieces (approximately 1 mm^3), rinsed in PBS to remove excess blood and plated onto 0.1 % gelatin petri dish in DMEM containing GlutaMax, 4.5 g /L glucose, penicillin, streptomycin and 15 % fetal calf serum. Cultures were maintained with minimum disturbance to allow explants to adhere. All cells were maintained at 37°C in a humidified air 5% CO2 atmosphere. After 4 days explants were removed and cells were gently washed and fresh medium with DMEM containing GlutaMax, 4.5 g /L glucose, penicillin, streptomycin and 10 % fetal calf serum serum was added. The cells were cultured during 10 days and trypsinized for experimentation.
For cardiomyogenesis, cells were plated at 2x10^4 onto 1% gelatin coated culture chamber in DMEM containing GlutaMax, 4.5 g /L glucose, penicillin, streptomycin and 10 % fetal calf serum. The cells were maintained in culture during six days and medium were change every 2 days. After 6 days, cardiomyocyte differentiation can be induced using culture medium supplemented with 1µM dexamethasone, 50µg/ml ascorbic acid, 10mM glycerophosphate without or with 10 nM of prokineticin-2. The medium was change every 2 days during 36 days. […]
Cells were fixed in 3,7% formaldehyde at 4°C 1 hours. […] The immunofluorescence was detected by Leica TCSNT fluorescent microscope.

| Compound | activation of PKR1 signalling pathway (intracellular calcium release) (PKR1) | PKR1 internalization (GFP-PKR1) | in vitro angiogenesis (tube-like formation of the endothelial cells on Matrigel) [1] | beating frequence of cardiomyocytes induced from cEPPC (cEPPC) |
| --- | --- | --- | --- | --- |
| O=C(NCc1cccnc1)/C(=C\c1ccco1)NC(=O)c1ccccc1 [IS1] | able to activate the PKR1 signalling pathway | specifically interacts with PKR1 and induces its internalization | Induction of in vitro angiogenesis |  |
| CC(C)NCC(O)c1ccc(O)c(O)c1 (stereo not shown) [isoproterenol, Isoproterenol] |  |  |  | beating frequence is increased |
